Experimental data taken from patent US11033547B2, “Carboxamide-pyrimidine derivatives as SHP2 antagonists” (Merck Patent GmbH, priority 2019, dated 2021).
Read-outs that look alike come from different tables or passages of the source.

Legend:
[1] = target: Full length SHP2 protein (Recombinant Human SHP-2) (Homo sapiens, UniProt Q06124); test: SHP2 biochemical assay (DiFMUP substrate, activating peptide IRSI_2pY); conditions: DiFMUP substrate, activating peptide IRSI_2pY, 60 min at RT; read-out: SHP-2 Biochemical assay IC50
Procedure: The inhibition of SHP2 by compounds of the invention was monitored using the surrogate substrate DiFMUP after protein activation by a peptide bearing two appropriately spaced phosphotyrosine. […] The generation of the DiFMU product by activated SHP2 was monitored through Fluorescence measurement with a PerkinElmer Envision reader.
The inhibitor dose response curves were analyzed with Genedata Screener.

[2] = tested on: pERK level in KYSE520 cells; test: p-Erk cellular assay in KYSE520 (Mesoscale); type: cell-based; conditions: 2 h incubation, read-out: pERK1/2 in KYSE520 IC50
Procedure: (§1) p-Erk Cellular Assay in MDA-MB-468 and KYSE520:
(§2) The effect of SHP2 inhibitors on pERK level was assessed using phospho-specific antibody using Mesoscale quantification platform. For measuring change in pERK levels using mesoscale, 30,000 cells of MDA MB468 and KYSE520 cells were plated in 96-well tissue culture treated plate in 175 ul volume of media. After an overnight incubation at 37° C., various SHP2 inhibitors were added in different concentration to each well maintaining duplicate wells across plates and incubated with compounds for 2 h at 37° C. followed by a wash with ice cold PBS buffer. The cells were then lysed in lysis buffer and processed and analyzed for p-ERK/ERK as per manufacturer's instructions (Mesoscale discovery, cat No. K15107D-3).

[3] = tested on: pERK level in MDA-MB-468 cells; test: p-Erk cellular assay in MDA-MB-468 (Mesoscale); type: cell-based; conditions: 2 h incubation, read-out: pERK1/2 in MDA-MB-468 IC50
Procedure: as §1, §2

With “2-((S)-3-amino-3H-spiro[benzofuran-2,4′-piperidin]-1′-yl)-5-(2,3-dichlorophenyl)-6-methylpyrimidine-4-carboxamide [Compound 122]” the IC50 [1] was 17 nM and the IC50 [2] was 48 nM.

With CC1(N)CCN(c2nc(N)c(-c3cccc(Cl)c3Cl)c(C(N)=O)n2)CC1 (atropisomer, axis not shown; (M)) [Compound 26, (4M)-6-Amino-2-(4-amino-4-methyl-piperidin-1-yl)-5-(2,3-dichloro-phenyl)-pyrimidine-4-carboxylic acid amide] the IC50 [1] was > 10000 nM, the IC50 [2] was > 10000 nM and the IC50 [3] was 8190 nM.

Cc1nc(N2CCC(C)(N)CC2)nc(C(N)=O)c1-c1cccc(Cl)c1Cl (atropisomer, axis not shown; (M)) [Compound 30, (4M)-2-(4-amino-4-methylpiperidin-1-yl)-5-(2,3-dichlorophenyl)-6-methylpyrimidine-4-carboxamide] was tested, and the IC50 [1] was 110 nM and the IC50 [3] was 475 nM.

Molecule Cc1nc(N[C@@H]2CCC[C@H](N)C2)nc(C(N)=O)c1-c1cccc(Cl)c1Cl (atropisomer, axis not shown; (M)) [Compound 88, (4M)-2-{[(1R,3S)-3-aminocyclohexyl]amino}-5-(2,3-dichlorophenyl)-6-methylpyrimidine-4-carboxamide] has an IC50 [1] of 410 nM and an IC50 ([2]; Homo sapiens, KYSE-520, 2 h) of 4250 nM.

CC1(N)CCN(c2nc(Cl)c(-c3cccc(Cl)c3Cl)c(C(N)=O)n2)CC1 (atropisomer, axis not shown; (P)) [Compound 79, (4P)-2-(4-amino-4-methylpiperidin-1-yl)-6-chloro-5-(2,3-dichlorophenyl)-pyrimidine-4-carboxamide] gave an IC50 [1] of 30 nM, an IC50 [2] of 837 nM and an IC50 [3] of 177 nM.

NC[C@@]12CCC[C@@H]1CN(c1nc(N)c(-c3cccc(Cl)c3Cl)c(C(N)=O)n1)C2 (atropisomer, axis not shown; (P)) [Compound 98, (5P)-2-[(3aR,6aS)-3a-(aminomethyl)octahydrocyclopenta[c]pyrrol-2-yl]-6-amino-5-(2,3-dichlorophenyl)pyrimidine-4-carboxamide] was tested, and the IC50 [1] was 49 nM, the IC50 ([2]; Homo sapiens, KYSE-520, 2 h) was 1200 nM and the IC50 ([3]; Homo sapiens, MDA-MB-468, 2 h) was 395 nM.

C[C@@]1(N)CCCN(c2nc(N)c(-c3cccc(Cl)c3Cl)c(C(N)=O)n2)CC1 (atropisomer, axis not shown; (P)) [Compound 109, (5P)-6-amino-2-[(4R)-4-amino-4-methylazepan-1-yl]-5-(2,3-dichlorophenyl)-pyrimidine-4-carboxamide] gave an IC50 [1] of 71 nM, an IC50 ([2]; Homo sapiens, KYSE-520, 2 h) of 468 nM and an IC50 ([3]; Homo sapiens, MDA-MB-468, 2 h) of 420 nM.

Work on C[C@@H]1OCC2(CCN(c3nc(N)c(-c4cccc(Cl)c4Cl)c(C(N)=O)n3)CC2)[C@@H]1N (single isomer, unassigned) [Compound 66] yielded an IC50 ([2]; Homo sapiens, KYSE-520, 2 h) of 863 nM and an IC50 ([3]; Homo sapiens, MDA-MB-468, 2 h) of 503 nM.

Cc1nc(N2CCC3(CC2)CC(F)(F)C[C@H]3N)nc(C(N)=O)c1-c1cccc(Cl)c1Cl (single isomer, unassigned) [Compound 96] gave an IC50 ([2]; Homo sapiens, KYSE-520, 2 h) of 993 nM.

NC[C@@]12CCCC[C@@H]1CN(c1nc(N)c(-c3cccc(Cl)c3Cl)c(C(N)=O)n1)C2 (single isomer, unassigned) [Compound 100] showed an IC50 [1] of 500 nM and an IC50 ([2]; Homo sapiens, KYSE-520, 2 h) of 12800 nM.

Work on NC[C@]12CCCC[C@H]1CN(c1nc(N)c(-c3cccc(Cl)c3Cl)c(C(N)=O)n1)C2 (single isomer, unassigned) [Compound 101] yielded an IC50 [1] of 75 nM, an IC50 ([2]; Homo sapiens, KYSE-520, 2 h) of 390 nM and an IC50 ([3]; Homo sapiens, MDA-MB-468, 2 h) of 445 nM.

NC[C@]12CCC[C@H]1CN(c1nc(N)c(-c3cccc(Cl)c3Cl)c(C(N)=O)n1)C2 (single isomer, unassigned) [Compound 104] showed an IC50 [1] of 120 nM and an IC50 ([2]; Homo sapiens, KYSE-520, 2 h) of 2250 nM.

For Cc1nc(N2CCC3(CCC[C@H]3N)CC2)nc(C(N)=O)c1-c1cccc(Cl)c1Cl (single isomer, unassigned) [Compound 114], the IC50 [1] was 45 nM, the IC50 ([2]; Homo sapiens, KYSE-520, 2 h) was 284 nM and the IC50 ([3]; Homo sapiens, MDA-MB-468, 2 h) was 316 nM.

With CC1(N)CCN(c2ncc(-c3cccc(Cl)c3Cl)c(C(N)=O)n2)CC1 [Compound 1, 2-(4-amino-4-methylpiperidin-1-yl)-5-(2,3-dichlorophenyl)pyrimidine-4-carboxamide] the IC50 ([3]; Homo sapiens, MDA-MB-468, 2 h) was 12000 nM.

With CC1(N)CCN(c2nc(N)c(-c3cccc(Cl)c3)c(C(N)=O)n2)CC1 [Compound 2, 6-Amino-2-(4-amino-4-methyl-piperidin-1-yl)-5-(3-chlorophenyl)-pyrimidine-4-carboxylic Acid Amide] the IC50 [1] was 2100 nM and the IC50 ([3]; Homo sapiens, MDA-MB-468, 2 h) was 3080 nM.

For NC(=O)c1nc(N2CCC3(CCC[C@H]3N)CC2)nc(N)c1-c1cccc(Cl)c1Cl [Compound 7, 6-amino-2-[(1R)-1-amino-8-azaspiro[4.5]decan-8-yl]-5-(2,3-dichlorophenyl)pyrimidine-4-carboxamide], the IC50 [1] was 120 nM, the IC50 ([2]; Homo sapiens, KYSE-520, 2 h) was 1370 nM and the IC50 ([3]; Homo sapiens, MDA-MB-468, 2 h) was 606 nM.

In the case of NC(=O)c1nc(N2CCC3(CC2)CC(F)(F)C[C@H]3N)nc(N)c1-c1cccc(Cl)c1Cl [Compound 8, 6-amino-2-[(1R)-1-amino-3,3-difluoro-8-azaspiro[4.5]decan-8-yl]-5-(2,3-dichlorophenyl)pyrimidine-4-carboxamide], the IC50 [1] is reported as 200 nM, the IC50 ([2]; Homo sapiens, KYSE-520, 2 h) is reported as 1510 nM and the IC50 ([3]; Homo sapiens, MDA-MB-468, 2 h) is reported as 2180 nM.

CNC(=O)c1nc(N2CCC(C)(N)CC2)nc(N)c1-c1cccc(Cl)c1Cl [Compound 9, 6-Amino-2-(4-amino-4-methyl-piperidin-1-yl)-5-(2,3-dichlorophenyl)-pyrimidine-4-carboxylic Acid Methylamide] showed an IC50 [1] of 1100 nM, an IC50 ([2]; Homo sapiens, KYSE-520, 2 h) of 6440 nM and an IC50 ([3]; Homo sapiens, MDA-MB-468, 2 h) of 1500 nM.

In the case of CC1(N)CCN(c2nc(Cl)c(-c3cccc(Cl)c3Cl)c(C(N)=O)n2)CC1 [Compound 16, 2-(4-Amino-4-methyl-piperidin-1-yl)-6-chloro-5-(2,3-dichlorophenyl)-pyrimidine-4-carboxylic Acid Amide], the IC50 ([2]; Homo sapiens, KYSE-520, 2 h) is reported as 1140 nM and the IC50 [3] is reported as 516 nM.

Cc1nc(N2C[C@H]3CC[C@H](N)[C@H]3C2)nc(C(N)=O)c1-c1cccc(Cl)c1Cl [Compound 77, 2-((3aR,4S,6aS)-4-Amino-hexahydro-cyclopenta-[c]pyrrol-2-yl)-5-(2,3-dichloro-phenyl)-6-methyl-pyrimidine-4-carboxylic acid amide] was tested, and the IC50 [1] was > 10000 nM.

Cc1nc(N2C[C@@H](N)[C@@H](O)C2)nc(C(N)=O)c1-c1cccc(Cl)c1Cl [Compound 80, 2-((3R,4S)-3-Amino-4-hydroxy-pyrrolidin-1-yl)-5-(2,3-dichloro-phenyl)-6-methyl-pyrimidine-4-carboxylic acid amide] gave an IC50 [1] of 5300 nM.

Work on Cc1nc(N2CCC(C)(N)CC2)nc(C(N)=O)c1-c1ccc(F)cc1Cl [Compound 82, 2-(4-Amino-4-methyl-piperidin-1-yl)-5-(2-chloro-4-fluoro-phenyl)-6-methyl-pyrimidine-4-carboxylic acid amide] yielded an IC50 [1] of 2000 nM.

For Cc1nc(N2CCC(C)(N)CC2)nc(C(N)=O)c1-c1cnccc1Cl [Compound 83, 2-(4-Amino-4-methyl-piperidin-1-yl)-5-(4-chloro-pyridin-3-yl)-6-methyl-pyrimidine-4-carboxylic acid amide], the IC50 [1] was 14000 nM.

For Cc1nc(N2C[C@H](N)[C@@H](O)C2)nc(C(N)=O)c1-c1cccc(Cl)c1Cl [Compound 84, 2-((3S,4S)-3-Amino-4-hydroxy-pyrrolidin-1-yl)-5-(2,3-dichloro-phenyl)-6-methyl-pyrimidine-4-carboxylic acid amide], the IC50 [1] was 6300 nM.

Cc1nc(N2CCC(C)(N)CC2)nc(C(N)=O)c1-c1ccncc1 [Compound 86, 2-(4-Amino-4-methyl-piperidin-1-yl)-6-methyl-5-pyridin-4-yl-pyrimidine-4-carboxylic acid amide] was tested, and the IC50 [1] was > 10000 nM.

Work on CC1(N)CCCN(c2nc(N)c(-c3cccc(Cl)c3Cl)c(C(N)=O)n2)CC1 (stereo not shown) [Compound 91, 6-Amino-2-(4-amino-4-methyl-azepan-1-yl)-5-(2,3-dichloro-phenyl)-pyrimidine-4-carboxylic acid amide] yielded an IC50 [1] of 100 nM and an IC50 ([2]; Homo sapiens, KYSE-520, 2 h) of 2600 nM.

In the case of Cc1nc(N[C@H]2CC[C@@H](N)CC2)nc(C(N)=O)c1-c1cccc(Cl)c1Cl [Compound 93, 2-(4-Amino-cyclohexyl-amino)-5-(2,3-dichloro-phenyl)-6-methyl-pyrimidine-4-carboxylic acid amide], the IC50 [1] is reported as 2300 nM.

Molecule Cc1nc(N2CCC(C)(N)CC2)nc(C(N)=O)c1-c1cccc(C(F)(F)F)c1Cl [Compound 111, 2-(4-Amino-4-methyl-piperidin-1-yl)-5-(2-chloro-3-trifluoromethyl-phenyl)-6-methyl-pyrimidine-4-carboxylic acid amide] has an IC50 [1] of 530 nM and an IC50 ([2]; Homo sapiens, KYSE-520, 2 h) of 4700 nM.

Cc1nc(N2CCC3(CC2)Oc2ncccc2[C@@H]3N)nc(C(N)=O)c1-c1cccc(Cl)c1Cl [Compound 125, (4M)-2-[(3S)-3-amino-3H-spiro[furo[2,3-b]pyridine-2,4′-piperidin]-1′-yl]-5-(2,3-dichlorophenyl)-6-methylpyrimidine-4-carboxamide] gave an IC50 [1] of 530 nM.

For Cc1nc(N2CCC3(CC2)Oc2ncccc2[C@@H]3N)nc(C(N)=O)c1-c1cccc(Cl)c1Cl [Compound 127, (4P)-2-[(3S)-3-amino-3H-spiro[furo[2,3-b]pyridine-2,4′-piperidin]-1′-yl]-5-(2,3-dichlorophenyl)-6-methylpyrimidine-4-carboxamide], the IC50 [1] was > 10000 nM.
